# Results published in paper PMC8042910, “Adiponectin-mimetic novel nonapeptide rescues aberrant neuronal metabolic-associated memory deficits in Alzheimer’s disease” (Molecular Neurodegeneration, 2021).
# Tested on: p-IRS-1 and p-PI3K/Akt/GSK3β (Ser 9) pathways
# Test: Insulin resistance and downstream insulin signaling in APPswe/ind-overexpressing SH-SY5Y cells, immunoblot
# Assay type: cell-based, human
# Conditions: APPswe/ind SH-SY5YIR, Comp. C 10 μM with Os-pep 10 μM
# Protocol: Human neuroblastoma SH-SY5Y cells were seeded (in 6-well culture plates for immunoblotting and in chamber slides for immunofluorescence) in DMEM (Dulbecco’s modified Eagle medium) containing 10% fetal bovine serum (FBS) and 1% antibiotics (penicillin-streptomycin) and incubated at 37 °C in humidified air containing 5% CO2. Once the cells reached 70–80% confluence, the cells were transfected using the pCAX vector containing the APPswe/ind gene using Lipofectamine 3000 (Life Technologies) according to the provider’s protocols. AdipoR1 siRNA (h) (SC-60123) and AMPK siRNA (h) (SC-45312) (Santa Cruz Biotechnology, Inc.) were used at a concentration of 10 μM per transfection and expressed for 72 h according to the manufacturer’s protocol (Santa Cruz Biotechnology, Inc.). A negative siRNA (Ambion, Thermo Fisher Scientific) was used as a control. Seventy-two hours after the transfections, the cells were exposed to Os-pep (10 μM) for 12 h and then subjected to immunoblotting and immunofluorescence analyses.
# Human neuroblastoma SH-SY5Y cells were treated with 1 µM of insulin for 48 h to produce intrinsic insulin-resistant human neuroblastoma (SH-SY5YIR) cells. After 48 h, SH-SY5YIR cells were overexpressed with human APPswe/ind and subjected with AdipoR1 siRNA which further exposed to 10 nM insulin, Os-pep (10 µM) or compound C (10 µM) for 12 h, and then cell lysates were collected and proceeded accordingly for immunoblotting and ELISA.
smiles,measurement,value
"c1cc(-c2cnn3cc(-c4ccc(OCCN5CCCCC5)cc4)cnc23)ccn1 [Comp. C, reference compound]",effect on insulin-sensitizing effect of Os-pep,inhibited the insulin-sensitizing effect of Os-pep
